Measurements reported in patent US6841532B2, “Peptides and their use to ameliorate cell death” (priority 1995, dated 2005).
Entries after “also recorded” stand apart in the source; their conditions may differ. Where no end group is shown, it is not given here.

Tests used:
[1] = system: Cardiac myocytes from embryonic chick hearts; assay: Amelioration of ammonium persulfate-induced cell death in cultured cardiac myocytes (Trypan blue exclusion); format: cell-based; details: 1 mM ammonium persulfate
Experimental: Cardiac myocytes from embryonic chick hearts were grown in culture using the procedures described in Rabkin, Exper. Cell. Res. 188:262-266, 1990. Briefly, white Leghorn eggs were incubated in an automatic incubator (March Rollex, Calif., USA) for 7 days at 37.8° C. and 87% humidity. Hearts were then isolated under sterile conditions from the 7-day chick embryo. Blood and connective tissue were removed under a dissecting microscope in a solution of balanced salts (DMS8) with the following composition (mM): NaCl 116, KCl 5.4, NaH2PO4 1 and dextrose 5.6. Disaggregation was carried out by 5-minute digestions in 0.005% trypsin (Gibco Laboratories, Burlington, Ontario), 0.1% BSA and 1×10^7 DNAse per mL, DMS8 (Worthington Biochemicals, Frederic, N.J., USA) at 37° C. After three digestions, the digests were diluted 1:5 in culture medium and the cells centrifuged for three minutes at 1000 g and plated.
The cultured cardiac myocytes were incubated with 1 mM ammonium persulfate for 2 hours at 37° C. to induce oxidative damage. Cell viability was assessed by Trypan blue exclusion. Six samples containing cells were then incubated with 0.0, 0.000375, 0.00375, 0.0375, 0.375 and 37.5 μM streptokinase (Hoechts-Roussel Pharmaceuticals), respectively, and 0.0, 0.000246, 0.00246, 0.0246, 0.246 and 24.6 μM plasminogen, respectively (see Table 1), for 1-2 hours at 37° C. and assessed by Trypan blue exclusion.
Control cell samples were treated with 1 mM ammonium persulfate in the absence of streptokinase (STK) and plasminogen under the same conditions.
The results are described in Table 1 in terms of the percent cell death induced by ammonium persulfate. The data represents the mean of six (6) duplicate determinations, none of which differed by more than 5%.
Each of the nineteen (19) resulting fractions was tested for the peptide's ability to ameliorate cell death according to the assay described in Example 1. The data in Table 2 represent the mean of duplicate determinations. None of the determinations differed by more than 5%.
Based on the sequences identified in Example 2, peptides were synthesized using a commercially available automated synthesizer (Applied Biosystems 430 A Peptide Synthesizer), purified by and tested according to the assay described in Example 1 for their ability to ameliorate cell death in cardiac myocytes. The sequences for these peptides were:
Table 3 presents the percentage of dead cells as measured by Trypan blue assessment as described in Example 1.

[2] = system: Spinal cord cells isolated from embryonic chicks; assay: Amelioration of ammonium persulfate-induced cell death in spinal cord cells (trypan blue); format: cell-based, chick; details: 1 mM ammonium persulfate for 1 or 2 hours; 10 μg/ml or 20 μg/ml peptide; versus control
Experimental: Spinal cord cells isolated from embryonic chicks were grown in culture for 5-7 days. Chick spinal cord cells were cultured as described briefly as follows. Cell cultures were prepared from 7-day chick embryo. Ventral portions of spinal cord were dissected free of meninges and dorsal root ganglia and diced into small pieces in Dulbecco's phosphate-buffered saline (PBS). Tissue fragments were incubated in PBS with 0.25% trypsin and 20 μg/ml DNase for 30 min at 36° C. Trypsin was inactivated by the addition of horse serum and cells were dissociated by gentle pipetting.
Isolated cells were washed, resuspended in medium and plated onto plastic coverslips in petri dishes. The medium consisted of Eagle's minimum essential medium (MEM), 10% fetal bovine serum (FBS), 5 mg/ml D-glucose and 25 μg/ml gentamycin. Cells were grown in an incubator with 5% CO2/95% air at 37° C. and the medium was renewed twice a week. Cells were used for experiment after 14 days.
Both the experimental and control cultures were treated with 1 mM ammonium persulfate for 1 or 2 hours at 37° C. The experimental cultures were treated with either 10 μg/ml or 20 μg/ml of the 20 mer peptide (SEQ ID NO: 6) for the same length of time. The number of dead cells, assayed by trypan blue, in the experimental groups was compared to that in the control group.

TF-1 = assay: Serum-deprivation-induced cell death, 3H-thymidine incorporation, TF-1; format: cell-based, human; details: TF-1 starved 30 hours, 20 μg/ml, then washed, IL-3 for 22 hours; control 14,728 ± 2,825
Experimental: (§1) Cells in the latter group were washed free of the 20 mer (SEQ. ID NO. 6), given saturating concentrations of growth factor (5 ng/ml of human interleukin-3) and incubated for an additional 22 hours. After the 22 hours, 1 μCi of ^3H-thymidine (2 Ci/mmol) was added and, after 2 hours, the cellular contents were harvested onto filtermats. Then ^3H-thymidine incorporation was measured using an LKB Betaplate Harvester and liquid scintillation counter. Note the increased viability of cells treated with the 20 mer peptide (SEQ ID NO: 6).

M07E = assay: Serum-deprivation-induced cell death, 3H-thymidine incorporation, M07E; format: cell-based, human; details: M07E starved 30 hours, 20 μg/ml, then washed, IL-3 for 22 hours; control 2,003 ± 468
Experimental: as §1

[3] = reverse phase HPLC fractions of streptokinase incubated 1:1 with plasminogen

YVDVDT [6 mer #2]
percentage of dead cells ([1]; Peptide Concentration 5 μM): 37.0%
percentage of dead cells ([1]; Peptide Concentration 20 μM): 25.4%

YVDVDTNELLKSEQLLTASE [fraction 12]
Cell Death (%) [1, 3]: 29%

Streptokinase [reference compound]
Cell Death (%) ([1]; 0.000375 μM streptokinase with 0.000246 μM plasminogen, control 81): 50%
Cell Death (%) ([1]; 0.00375 μM streptokinase with 0.00246 μM plasminogen, control 81): 37%
Cell Death (%) ([1]; 0.0375 μM streptokinase with 0.0246 μM plasminogen, control 81): 29%
Cell Death (%) ([1]; 0.375 μM streptokinase with 0.246 μM plasminogen, control 81): 25%
Cell Death (%) ([1]; 37.5 μM streptokinase with 24.6 μM plasminogen, control 81): 16%

SVDVEYTQFTDFRGKLTKLL [20 mer]
survival of spinal cord cells (number of dead cells, trypan blue) [2]: dramatically enhanced cell survival; also recorded: almost completely prevented cell death
3H-THYMIDINE COUNTS (COUNTS PER MINUTE) (TF-1): 32,701 ± 5,565 COUNTS PER MINUTE
percentage of dead cells ([1]; Peptide Concentration 5 μM): 47.6%
percentage of dead cells ([1]; Peptide Concentration 10 μM): 35.4%
percentage of dead cells ([1]; Peptide Concentration 15 μM): 31.6%
percentage of dead cells ([1]; Peptide Concentration 20 μM): 23.1%
percentage of dead cells ([1]; Peptide Concentration 20 μM, listed as 20mer): ~20%
3H-THYMIDINE COUNTS (COUNTS PER MINUTE) (M07E): 4,282 ± 212 COUNTS PER MINUTE

NFLRGKLKLYTGEACRTGDR [Irrelevant #1, irrelevant peptide utilized as negative control, reference compound]
percentage of dead cells ([1]; Peptide Concentration 5 μM): 77.1%
percentage of dead cells ([1]; Peptide Concentration 20 μM): 67.6%

SVDVEYTVQFTPLNPDDDFRP [fraction 13]
Cell Death (%) [1, 3]: 39%

YVDVDTNELLK [11 mer]
percentage of dead cells ([1]; Peptide Concentration 5 μM): 38.6%

SVDVEYTVQFTPLNPDDD [18 mer]
percentage of dead cells ([1]; Peptide Concentration 20 μM): 54.4%

SVDVEY [6 mer #1]
percentage of dead cells ([1]; Peptide Concentration 5 μM): 51.9%
percentage of dead cells ([1]; Peptide Concentration 20 μM): 36.8%

EVTEEEETVPLKThE-AMIDE [Irrelevant #3, reference compound]
percentage of dead cells ([1]; Peptide Concentration 5 μM): 79.5%
percentage of dead cells ([1]; Peptide Concentration 20 μM): 81.1%

RLILDSRVLERYLLEAKEAE [Irrelevant #2, irrelevant peptide utilized as negative control, reference compound]
percentage of dead cells ([1]; Peptide Concentration 5 μM): 77.4%
percentage of dead cells ([1]; Peptide Concentration 20 μM): 76.1%
